According to article PMC12564302, “Discovery of N-Hydroxypyridinedione-Based Inhibitors of HBV RNase H: Design, Synthesis, and Extended SAR Studies” (International Journal of Molecular Sciences, 2025):
≈ marks a conversion by molar mass, not a printed value. Entries after “also recorded” stand apart in the source; their conditions may differ. Where two headings read alike, the source gives them in different places.

Columns and labels:
[1] = MTS cytotoxicity assay; type: cell-based; settings: human, HepDES19 cells, pH 7.4
Method: (§1) HepDES19 cells are a HepG2 cell-line derivative that has been stably transfected with an HBV genotype D genome containing a tetracycline repressible promoter. HepDES19 cells were maintained on collagen-coated plates in Dulbecco’s modified Eagle’s medium (DMEM/F12) (Cytiva Life Sciences, Marlborough, MA, USA) supplemented with 10% fetal bovine serum (FBS), streptomycin (100 µg/mL), and penicillin (100 IU/mL), and incubated at 37 °C with 5% CO2 and saturating humidity. Cells were cultured with 1 µg/mL tetracycline to inhibit the expression of the stably integrated HBV genome, and HBV replication was activated upon removal of tetracycline from the culture medium.
Cell viability was assessed using the CellTiter 96^TM Aqueous Non-Radioactive Cell Proliferation assay (MTS) (Promega, Madison, WI, USA) as described previously. HepDES19 cells were seeded in 96 well plates at 1 × 10^4 cells/well for 48 h. Cells were then incubated with serial diluted compound, with a final concentration of 1% DMSO, for 72 h. Following compound incubation, background absorbance values were subtracted, and the data were converted into percent cell viability. The cytotoxic concentration 50% (CC50) values were calculated using GraphPad Prism’s four-parameter log (inhibitor) versus response algorithm, with the bottom value set to zero. Three or more replicate assays were performed on different days.

[2] = Parallel artificial membrane permeability assay; type: in vitro ADME; settings: PAMPA, pH 7.4, PAMPA
Method: The evaluation of apparent passive permeability (Papp) at pH 7.4 was performed using a donor/acceptor cassette (Innovative Laboratory Products, Phoenix, AZ, USA and Sigma Aldrich, Burlington, MA, USA), which simulates the apical and basolateral sides of the small intestine epithelium, as previously described. An artificial membrane made of 1% w/v lecithin/dodecane was applied to the poly (vinylidene fluoride) (PVDF) membrane filter and allowed to dry. Following drying, compounds (200 µM) were diluted in buffer at pH 7.4 and added to the donor side of the cassette. The same pH buffer was added on the acceptor side of the cassette, after which it was assembled and incubated at room temperature with shaking at 250 rpm for 2 h, before reading the absorbance of 100 µL from the acceptor well on a plate reader between 230 and 700 nm. The Papp (cm/s) values for compounds were determined by normalizing to the compound absorbance at equilibrium using the peak absorbance point for each compound, buffer volume, incubation time, and membrane porosity. Two or more replicate assays were conducted on different days.

[3] = Solubility limit assay; type: physicochemical; settings: DMEM-F12 without phenol red with 10% FBS, pH 7.4, plasma or biological fluid, kinetic from dmso stock
Method: Solubility limits of compounds were tested as previously reported in DMEM-F12 without phenol red (Gibco, Grand Island, NY, USA) but with the media supplemented with 10% FBS (pH 7.4) to mimic cell culture experiments. In a 384-well optically clear plate, compounds were serially diluted in pH 7.4 buffer (upper limit 200 µM, DMSO 1%) then read at 620 nm. Solubility limits were determined by plotting compound concentration (µM) against optical density (OD) and identifying an inflexion point. The inflexion point is defined by a substantial increase in OD brought on by increasing turbidity, and the compound concentration at this point is known as the solubility limit. Each compound had at least two replicate assays performed on different days.

[4] = test system: HBV replication in HepDES19 cells; assay: qPCR HBV replication inhibition assay; type: cell-based, HBV genotype D
Method: as §1
HBV replication inhibition in HepDES19 cells was assessed using a strand-preferential quantitative PCR assay as previously described. HepDES19 cells were seeded in 96 well plates at 4 × 10^4 cells/well for 48 h followed by the addition of serial diluted compound with a final concentration of 1% DMSO for 72 h, after which cells were lysed, and qPCR was performed as described in Li et al.. Effective concentration 50% (EC50) values were calculated from data for the (+) polarity DNA strand data using GraphPad Prism version 10’s four-parameter log (inhibitor) versus response algorithm, with the bottom value set to zero. Three or more replicate assays were performed on different days.

[5] = pH 7.4, 200 µM, 2 h, read-out: Papp
[6] = pH 7.4, read-out: Papp Interpretation
[7] = pH 7.4, DMEM-F12 with 10% FBS, 1% DMSO, upper limit 200 µM, read-out: Solubility Limit
[8] = pH 7.4, read-out: Solubility Limit Interpretation
[9] = Hepatitis B virus, HepDES19, 72 h, pH 7.4, HepDES19 cells, 72 h, (+) polarity DNA strand, pH 7.4, read-out: EC50
[10] = Hepatitis B virus, HepDES19, 72 h, experimental potencies of the E/Z mixture, read-out: EC50 mix

Compound | CC50 at 72 h [1] [µM] | Papp at 2 h, 200 µM [2, 5] [×10⁻⁶ cm/s] | Papp at 2 h, 200 µM [2, 6] [×10⁻⁶ cm/s] | solubility [3, 7] [µM] | solubility [3, 8] [µM] | EC50 [4, 9] [µM] | EC50 [4, 10] [µM] | anti-HBV activity (in words) ([4]; HepDES19 cells) | EC50 ([4]; HepDES19 cells, 72 h, (+) polarity DNA strand, pH 7.4, read-out: EC50) [µM]
CC(=Nc1cc(F)ccc1F)c1c(C)cc(=O)n(O)c1O [Compound 27, 5-(1-((2,5-difluorophenyl)imino)ethyl)-1,6-dihydroxy-4-methylpyridin-2(1H)-one] | 58.4 ± 21.9 | 2.4 | > 1 | > 200 | > 100 | 1.97 ± 0.6 | – | – | –
CC(=NOCc1ccccc1I)c1c(C)cc(=O)n(O)c1O [Compound 32, 1,6-dihydroxy-5-(1-(((2-iodobenzyl)oxy)imino)ethyl)-4-methylpyridin-2(1H)-one] | 54.1 ± 13.7 | 3.29 | > 1 | 100 (≈ 41.4 µg/mL) | > 100 | 1.77 ± 0.5 | 1.77 ± 0.5 | – | –
CC(=Nc1ccc(F)c(Cl)c1)c1c(C)cc(=O)n(O)c1O [Compound 29, 5-(1-((3-chloro-4-fluorophenyl)imino)ethyl)-1,6-dihydroxy-4-methylpyridin-2(1H)-one] | 70.8 ± 18.4 | 3.65 | > 1 | > 200 | > 100 | 3.25 ± 1 | – | – | –
CC(=Nc1ccc(Cl)c(Cl)c1)c1c(C)cc(=O)n(O)c1O [Compound 24, 5-(1-((3,4-dichlorophenyl)imino)ethyl)-1,6-dihydroxy-4-methylpyridin-2(1H)-one] | 69 | 2.24 | > 1 | > 200 | > 100 | 2.17 ± 0.8 | – | – | –
CC(=NCCOc1ccc(Cl)cc1)c1c(C)cc(=O)n(O)c1O [Compound 43, 5-(1-((2-(4-chlorophenoxy)ethyl)imino)ethyl)-1,6-dihydroxy-4-methylpyridin-2(1H)-one] | 30.1 ± 12.5 | 0.86 | < 1 | > 200 | > 100 | 17.2 ± 6.6 | – | – | –
CC(=NCc1ccccc1Cl)c1c(C)cc(=O)n(O)c1O [Compound 36, 5-(1-((2-chlorobenzyl)imino)ethyl)-1,6-dihydroxy-4-methylpyridin-2(1H)-one] | 52.7 ± 29.3 | 3.04 | > 1 | 167 (≈ 51.1 µg/mL) | > 100 | 2.77 ± 0.8 | – | – | –
CC(=NOCc1ccc(Cl)c(Cl)c1)c1c(C)cc(=O)n(O)c1O [Compound 30, 5-(1-(((3,4-dichlorobenzyl)oxy)imino)ethyl)-1,6-dihydroxy-4-methylpyridin-2(1H)-one] | 49.7 ± 16.4 | 1.59 | > 1 | > 200 | > 100 | 1.77 ± 0.7 | 1.77 ± 0.7 | – | –
CC(=NCc1ccc(F)c(F)c1)c1c(C)cc(=O)n(O)c1O [Compound 41, 5-(1-((3,4-difluorobenzyl)imino)ethyl)-1,6-dihydroxy-4-methylpyridin-2(1H)-one] | 23.9 ± 11.7 | 2.54 | > 1 | > 200 | > 100 | 10.7 ± 0.5 | – | – | –
CC(=NCc1cccc(Br)c1)c1c(C)cc(=O)n(O)c1O [Compound 34, 5-(1-((3-bromobenzyl)imino)ethyl)-1,6-dihydroxy-4-methylpyridin-2(1H)-one] | 22.6 ± 16.7 | 1.11 | > 1 | > 200 | > 100 | 13.6 ± 2.8 | – | – | –
CC(=Nc1ccccc1Cl)c1c(C)cc(=O)n(O)c1O [Compound 23, 5-(1-((2-chlorophenyl)imino)ethyl)-1,6-dihydroxy-4-methylpyridin-2(1H)-one] | 76.8 ± 5.9 | 2.83 | > 1 | > 200 | > 100 | 2.42 ± 1 | – | – | –
CC(=NCc1ccc(Br)cc1)c1c(C)cc(=O)n(O)c1O [Compound 35, 5-(1-((4-bromobenzyl)imino)ethyl)-1,6-dihydroxy-4-methylpyridin-2(1H)-one] | 44.4 ± 34.4 | 3.15 | > 1 | > 200 | > 100 | 15 ± 10.7 | – | – | –
CC(=NCc1cccc(Cl)c1)c1c(C)cc(=O)n(O)c1O [Compound 37, 5-(1-((3-chlorobenzyl)imino)ethyl)-1,6-dihydroxy-4-methylpyridin-2(1H)-one] | 34 ± 23 | 5.41 | > 1 | > 200 | > 100 | 4.73 ± 4.4 | – | – | –
CC(=NCc1ccccc1Br)c1c(C)cc(=O)n(O)c1O [Compound 33, 5-(1-((2-bromobenzyl)imino)ethyl)-1,6-dihydroxy-4-methylpyridin-2(1H)-one] | 51.3 ± 20.9 | 1.22 | > 1 | > 200 | > 100 | 8.45 ± 3.5 | – | – | –
CC(=Nc1ccc(F)cc1F)c1c(C)cc(=O)n(O)c1O [Compound 26, 5-(1-((2,4-difluorophenyl)imino)ethyl)-1,6-dihydroxy-4-methylpyridin-2(1H)-one] | 54.1 ± 27.7 | 3.81 | > 1 | > 200 | > 100 | 2.83 ± 1.1 | – | – | –
CC(=Nc1c(F)cccc1F)c1c(C)cc(=O)n(O)c1O [Compound 28, 5-(1-((2,6-difluorophenyl)imino)ethyl)-1,6-dihydroxy-4-methylpyridin-2(1H)-one] | 52.6 ± 20.5 | 2.48 | > 1 | > 200 | > 100 | 2.73 ± 1 | – | – | –
CC(=NCc1ccc(F)cc1)c1c(C)cc(=O)n(O)c1O [Compound 40, 5-(1-((4-fluorobenzyl)imino)ethyl)-1,6-dihydroxy-4-methylpyridin-2(1H)-one] | 15.4 ± 7.4 | 1.1 | > 1 | > 200 | > 100 | 16.5 ± 3.5 | – | – | –
CC(=NOCc1ccc(Cl)cc1Cl)c1c(C)cc(=O)n(O)c1O [Compound 31, 5-(1-(((2,4-dichlorobenzyl)oxy)imino)ethyl)-1,6-dihydroxy-4-methylpyridin-2(1H)-one] | 34.4 ± 14.1 | 4 | > 1 | > 200 | > 100 | 0.5 | 0.53 ± 0.3 | – | –
2-amino-4-(2-bromophenoxy)-6-iminopyrimidin-1(6H)-ol [Compound 44] | – | – | – | – | – | – | – | inactive against HBV | > 100
CC(=NOCc1ccccc1Cl)C1C(=O)NC(=O)NC1=O [Compound 45, 5-(1-(((2-chlorobenzyl)oxy)imino)ethyl)pyrimidine-2,4,6(1H,3H,5H)-trione] | 100 | – | – | – | – | 100 | – | inactive; also recorded: lack of inhibition; also recorded: lack of activity | –
